Data: patent US10039780B2 (Chiesi Farmaceutici S.p.A., priority 2015, dated 2018)
One block for each molecule: values may come before it.

Key:
Assay type in all cases: physicochemical
[1] = Long term stability at 25° C. and 60% relative humidity (HPLC, ion chromatography, Karl-Fischer); details: for Impurity A concentration / Impurity B concentration / Total impurities concentration / Moisture concentration / Impurity E concentration / Impurity C concentration: 25° C./60% relative humidity; for Moisture concentration: Karl-Fischer; for Impurity E concentration: ion chromatography; for storage stability, conclusion in words: storage at 25° C./60% relative humidity
Experimental: Their pH was adjusted to 8.5 prior to lyophilization and they were stored in glass vials stoppered with a stopper specifically selected for its ability to retain as little moisture as possible after autoclaving and after drying for 8 h at 105° C. […] Cangrelor lots API A-B are cangrelor tetrasodium. They were stored in double polyethylene bags in […]. […] In addition their moisture content was determined by Karl-Fischer titration.

[2] = Solution stability of cangrelor in purified water, reverse phase HPLC; details: 1 mg/mL in purified water
[3] = Accelerated pH stability of cangrelor in buffer solutions, reverse phase HPLC; details: 1 mg/mL, 7 days at 40° C. protected from light
Experimental: The extent of degradation was determined using a reverse phase HPLC method.

[4] = Photostability of solid cangrelor in quartz cuvettes, reverse phase HPLC
Experimental: Namely, solid cangrelor was placed in two quartz cuvettes. Both cuvettes were placed in a chamber and exposed to a combination of […] (near UV) and […] (visible) light for a total of 7.8×10^6 LUX hours and 221 watt hours/m^2, but one cuvette was wrapped in aluminum foil. After 17 days, the levels of impurities in the sample were determined by reverse phase HPLC.

[5] = Hygroscopicity by dynamic vapor adsorption analysis
[6] = after 8 days, 4° C. and ambient humidity
[7] = after 8 days, 25° C. and 60% relative humidity
[8] = after 8 days, 40° C. and ambient humidity

- Impurity A concentration ([1]; 1 month): 0.28 % w/w
- Impurity B concentration ([1]; 1 month): 0.22 % w/w
- Total impurities concentration ([1]; 1 month): 1.10 % w/w
- Moisture concentration ([1]; 1 month): 7.7 % w/w
- Impurity E concentration ([1]; 1 month): 0.08 % w/w
- Impurity A concentration ([1]; 3 months): 0.47 % w/w
- Impurity B concentration ([1]; 3 months): 0.33 % w/w
- Total impurities concentration ([1]; 3 months): 1.40 % w/w
- Moisture concentration ([1]; 3 months): 11.3 % w/w
- Impurity E concentration ([1]; 3 months): 0.11 % w/w
- Impurity A concentration ([1]; Initial): 0.15 % w/w
- Impurity B concentration ([1]; Initial): 0.11 % w/w
- Total impurities concentration ([1]; Initial): 0.70 % w/w
- Moisture concentration ([1]; Initial): 4.3 % w/w
- Impurity E concentration ([1]; Initial): 0.06 % w/w
Structure (SMILES): CSCCNc1nc(SCCC(F)(F)F)nc2c1ncn2[C@@H]1O[C@H](COP(=O)([O-])OP(=O)([O-])C(Cl)(Cl)P(=O)([O-])[O-])[C@@H](O)[C@H]1O.[Na+].[Na+].[Na+].[Na+] [API A]
- storage stability, conclusion in words [1]: display significant degradation over time

- Impurity A concentration ([1]; 1 month): 0.36 % w/w
- Impurity B concentration ([1]; 1 month): 0.19 % w/w
- Impurity C concentration ([1]; 1 month): 0.06 % w/w
- Total impurities concentration ([1]; 1 month): 1.10 % w/w
- Moisture concentration ([1]; 1 month): 6.9 % w/w
- Impurity A concentration ([1]; 3 months): 0.51 % w/w
- Impurity B concentration ([1]; 3 months): 0.32 % w/w
- Impurity C concentration ([1]; 3 months): 0.08 % w/w
- Total impurities concentration ([1]; 3 months): 1.50 % w/w
- Moisture concentration ([1]; 3 months): 9.9 % w/w
- Impurity A concentration ([1]; 6 months): 0.70 % w/w
- Impurity B concentration ([1]; 6 months): 0.48 % w/w
- Impurity C concentration ([1]; 6 months): 0.19 % w/w
- Total impurities concentration ([1]; 6 months): 1.90 % w/w
- Moisture concentration ([1]; 6 months): 11.6 % w/w
- Impurity A concentration ([1]; Initial): 0.31 % w/w
- Impurity B concentration ([1]; Initial): 0.11 % w/w
- Impurity C concentration ([1]; Initial): <0.05 % w/w
- Total impurities concentration ([1]; Initial): 0.80 % w/w
- Moisture concentration ([1]; Initial): 7.0 % w/w
Structure (SMILES): CSCCNc1nc(SCCC(F)(F)F)nc2c1ncn2[C@@H]1O[C@H](COP(=O)([O-])OP(=O)([O-])C(Cl)(Cl)P(=O)([O-])[O-])[C@@H](O)[C@H]1O.[Na+].[Na+].[Na+].[Na+] [API B]
- storage stability, conclusion in words [1]: display significant degradation over time

- Cangrelor measured level ([2]; Initial): 98.23 % w/w
- Impurity A measured level ([2]; Initial): 0.16 % w/w
- Impurity C measured level ([2]; Initial): 0.28 % w/w
- Total Impurities measured level ([2]; Initial): 1.76 % w/w
- Cangrelor measured level [2, 6]: 98.45 % w/w
- Impurity A measured level [2, 6]: 0.22 % w/w
- Impurity C measured level [2, 6]: 0.26 % w/w
- Total Impurities measured level [2, 6]: 1.54 % w/w
- Cangrelor measured level [2, 7]: 96.94 % w/w
- Impurity A measured level [2, 7]: 1.58 % w/w
- Impurity C measured level [2, 7]: 0.27 % w/w
- Total Impurities measured level [2, 7]: 3.06 % w/w
- Cangrelor measured level [2, 8]: 90.46 % w/w
- Impurity A measured level [2, 8]: 7.50 % w/w
- Impurity C measured level [2, 8]: 0.37 % w/w
- Total Impurities measured level [2, 8]: 9.56 % w/w
- Impurity A ([3]; pH 1.0, 0.1M HCl): 28.51 % w/w
- Impurity D ([3]; pH 1.0, 0.1M HCl): 68.12 % w/w
- Total Impurities ([3]; pH 1.0, 0.1M HCl): 97.28 % w/w
- Impurity A ([3]; pH 3.0, Phosphate): 28.69 % w/w
- Impurity D ([3]; pH 3.0, Phosphate): 0.81 % w/w
- Total Impurities ([3]; pH 3.0, Phosphate): 31.48 % w/w
- Impurity A ([3]; pH 5.0, Phosphate): 20.70 % w/w
- Total Impurities ([3]; pH 5.0, Phosphate): 22.16 % w/w
- Impurity A ([3]; pH 7.0, Phosphate): 14.31 % w/w
- Total Impurities ([3]; pH 7.0, Phosphate): 15.71 % w/w
- Impurity A ([3]; pH 9.0, Phosphate): 3.25 % w/w
- Total Impurities ([3]; pH 9.0, Phosphate): 4.90 % w/w
- Impurity A ([3]; pH 11.0, Phosphate): 2.61 % w/w
- Total Impurities ([3]; pH 11.0, Phosphate): 4.28 % w/w
- Impurity A ([3]; pH 12.0, 0.1M NaOH): 2.42 % w/w
- Total Impurities ([3]; pH 12.0, 0.1M NaOH): 4.39 % w/w
- total level of impurities ([4]; solid cangrelor, initially): 0.8 % (w/w)
- total level of impurities ([4]; solid, exposed sample, near UV and visible light, 7.8×10^6 LUX hours and 221 watt hours/m^2, after 17 days): 4.3 % (w/w)
- total level of impurities ([4]; solid, shielded sample (cuvette wrapped in aluminum foil), after 17 days): 1.2 % (w/w)
Structure (SMILES): CSCCNc1nc(SCCC(F)(F)F)nc2c1ncn2[C@@H]1O[C@H](COP(=O)(O)OP(=O)(O)C(Cl)(Cl)P(=O)(O)O)[C@@H](O)[C@H]1O [Cangrelor, [dichloro-[[[(2R,3S,4R,5R)-3,4-dihydroxy-5-[6-(2-methylsulfanylethylamino)-2-(3,3,3-trifluoropropylsulfanyl)purin-9-yl]oxolan-2-yl]methoxy-hydroxyphosphoryl]oxy-hydroxyphosphoryl]methyl]phosphonic acid]

- hygroscopicity [5]: hygroscopic
Structure (SMILES): CSCCNc1nc(SCCC(F)(F)F)nc2c1ncn2[C@@H]1O[C@H](COP(=O)(O)OP(=O)(O)C(Cl)(Cl)P(=O)(O)O)[C@@H](O)[C@H]1O [cangrelor tetrasodium]
